These results are taken from ChEMBL document CHEMBL1201862, “PubChem BioAssay data set” (2004).

Activity calls are given as the source filed them.

Assay [1] concerns the target T1, DNA repair protein RAD52 homolog (Homo sapiens, UniProt P43351).
T1 sequence (P43351 whole entry): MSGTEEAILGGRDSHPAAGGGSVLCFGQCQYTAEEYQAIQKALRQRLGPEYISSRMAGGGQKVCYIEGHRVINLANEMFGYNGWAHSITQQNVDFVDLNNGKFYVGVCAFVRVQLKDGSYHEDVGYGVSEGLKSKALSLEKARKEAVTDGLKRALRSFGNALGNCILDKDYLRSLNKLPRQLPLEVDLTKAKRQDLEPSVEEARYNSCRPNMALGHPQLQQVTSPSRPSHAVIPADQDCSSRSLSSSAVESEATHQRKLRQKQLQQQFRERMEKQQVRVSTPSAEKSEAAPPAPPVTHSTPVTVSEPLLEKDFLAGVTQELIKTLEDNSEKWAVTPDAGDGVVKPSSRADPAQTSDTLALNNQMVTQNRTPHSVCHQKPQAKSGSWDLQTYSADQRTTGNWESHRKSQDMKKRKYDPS
It counts as functional, biochemical.

The target of assay [2] is T2, Ubiquitin-conjugating enzyme E2 N (Homo sapiens, UniProt P61088).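 Note: Dose-response confirmation in a TR-FRET assay detecting UBC13-driven polyubiquitin chain formation, inhibition measured.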
T2 sequence (P61088 whole entry): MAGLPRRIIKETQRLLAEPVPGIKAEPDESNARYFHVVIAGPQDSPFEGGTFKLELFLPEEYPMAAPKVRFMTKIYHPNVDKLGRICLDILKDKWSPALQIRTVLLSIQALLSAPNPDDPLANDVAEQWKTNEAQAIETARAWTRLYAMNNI
The assay is classed as functional.

The target of assay [3] is T3, Sentrin-specific protease 7 (Homo sapiens, UniProt Q9BQF6).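 Note: Luminescence-based dose-response confirmation of ultra-high-throughput screening hits, measuring inhibition of SENP7.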
T3 sequence (Q9BQF6 whole entry): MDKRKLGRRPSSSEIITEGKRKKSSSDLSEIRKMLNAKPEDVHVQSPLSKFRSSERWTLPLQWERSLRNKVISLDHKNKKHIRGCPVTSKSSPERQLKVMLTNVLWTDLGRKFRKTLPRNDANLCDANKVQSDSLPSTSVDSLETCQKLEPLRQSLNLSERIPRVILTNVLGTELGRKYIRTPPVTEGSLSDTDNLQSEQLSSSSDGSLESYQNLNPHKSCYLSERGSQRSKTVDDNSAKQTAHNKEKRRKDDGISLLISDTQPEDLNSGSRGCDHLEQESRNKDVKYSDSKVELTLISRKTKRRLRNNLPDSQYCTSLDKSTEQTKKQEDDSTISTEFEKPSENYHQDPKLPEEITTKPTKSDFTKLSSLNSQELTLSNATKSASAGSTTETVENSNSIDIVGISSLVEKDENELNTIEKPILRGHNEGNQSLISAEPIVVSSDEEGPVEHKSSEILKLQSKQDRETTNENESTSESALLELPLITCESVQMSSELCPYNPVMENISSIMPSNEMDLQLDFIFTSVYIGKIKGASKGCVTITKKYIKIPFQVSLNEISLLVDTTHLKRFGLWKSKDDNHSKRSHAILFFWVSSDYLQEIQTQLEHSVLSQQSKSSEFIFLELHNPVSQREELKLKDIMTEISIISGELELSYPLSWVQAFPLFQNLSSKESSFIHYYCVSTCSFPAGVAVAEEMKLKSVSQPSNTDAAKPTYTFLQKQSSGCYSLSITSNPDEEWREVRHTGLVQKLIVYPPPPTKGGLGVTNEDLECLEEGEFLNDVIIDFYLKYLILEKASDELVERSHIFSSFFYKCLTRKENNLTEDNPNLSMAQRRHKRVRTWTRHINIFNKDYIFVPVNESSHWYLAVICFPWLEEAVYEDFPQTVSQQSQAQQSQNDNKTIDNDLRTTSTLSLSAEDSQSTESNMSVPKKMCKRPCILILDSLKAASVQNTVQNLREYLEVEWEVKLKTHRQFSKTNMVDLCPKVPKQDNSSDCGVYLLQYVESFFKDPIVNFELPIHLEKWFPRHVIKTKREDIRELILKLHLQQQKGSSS
It counts as functional.

For assay [4], the target named is T4, Sentrin-specific protease 8 (Homo sapiens, UniProt Q96LD8).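 Note: luminescence read-out of SENP8 inhibition, dose-response confirmation following an ultra-high-throughput screen.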
T4 sequence (Q96LD8 whole entry): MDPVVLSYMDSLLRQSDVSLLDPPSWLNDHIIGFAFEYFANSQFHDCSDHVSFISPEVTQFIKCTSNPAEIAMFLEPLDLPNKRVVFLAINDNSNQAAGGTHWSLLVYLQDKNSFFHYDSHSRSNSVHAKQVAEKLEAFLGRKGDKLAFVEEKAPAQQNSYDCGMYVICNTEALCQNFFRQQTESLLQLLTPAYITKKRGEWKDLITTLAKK
The assay is classed as functional.

Another assay concerns the target T5, Caspase-3 (Homo sapiens, UniProt P42574).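 Note: Dose-response selectivity test against caspase-3 for candidate inhibitors of sentrin-specific proteases (SENPs).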
T5 sequence (P42574 whole entry): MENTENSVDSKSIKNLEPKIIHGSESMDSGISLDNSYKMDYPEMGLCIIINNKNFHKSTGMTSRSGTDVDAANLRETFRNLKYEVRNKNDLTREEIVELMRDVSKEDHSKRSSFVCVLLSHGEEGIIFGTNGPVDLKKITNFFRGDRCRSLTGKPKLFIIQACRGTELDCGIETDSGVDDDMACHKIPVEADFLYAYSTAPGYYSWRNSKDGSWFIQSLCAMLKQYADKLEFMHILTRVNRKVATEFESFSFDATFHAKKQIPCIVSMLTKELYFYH
The assay is classed as functional.

For assay [5], the target named is T6, Sentrin-specific protease 6 (Homo sapiens, UniProt Q9GZR1).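 Note: Luminescence-based dose-response confirmatory assay of SENP6 inhibition, following up an ultra-high-throughput screen.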
T6 sequence (Q9GZR1 whole entry): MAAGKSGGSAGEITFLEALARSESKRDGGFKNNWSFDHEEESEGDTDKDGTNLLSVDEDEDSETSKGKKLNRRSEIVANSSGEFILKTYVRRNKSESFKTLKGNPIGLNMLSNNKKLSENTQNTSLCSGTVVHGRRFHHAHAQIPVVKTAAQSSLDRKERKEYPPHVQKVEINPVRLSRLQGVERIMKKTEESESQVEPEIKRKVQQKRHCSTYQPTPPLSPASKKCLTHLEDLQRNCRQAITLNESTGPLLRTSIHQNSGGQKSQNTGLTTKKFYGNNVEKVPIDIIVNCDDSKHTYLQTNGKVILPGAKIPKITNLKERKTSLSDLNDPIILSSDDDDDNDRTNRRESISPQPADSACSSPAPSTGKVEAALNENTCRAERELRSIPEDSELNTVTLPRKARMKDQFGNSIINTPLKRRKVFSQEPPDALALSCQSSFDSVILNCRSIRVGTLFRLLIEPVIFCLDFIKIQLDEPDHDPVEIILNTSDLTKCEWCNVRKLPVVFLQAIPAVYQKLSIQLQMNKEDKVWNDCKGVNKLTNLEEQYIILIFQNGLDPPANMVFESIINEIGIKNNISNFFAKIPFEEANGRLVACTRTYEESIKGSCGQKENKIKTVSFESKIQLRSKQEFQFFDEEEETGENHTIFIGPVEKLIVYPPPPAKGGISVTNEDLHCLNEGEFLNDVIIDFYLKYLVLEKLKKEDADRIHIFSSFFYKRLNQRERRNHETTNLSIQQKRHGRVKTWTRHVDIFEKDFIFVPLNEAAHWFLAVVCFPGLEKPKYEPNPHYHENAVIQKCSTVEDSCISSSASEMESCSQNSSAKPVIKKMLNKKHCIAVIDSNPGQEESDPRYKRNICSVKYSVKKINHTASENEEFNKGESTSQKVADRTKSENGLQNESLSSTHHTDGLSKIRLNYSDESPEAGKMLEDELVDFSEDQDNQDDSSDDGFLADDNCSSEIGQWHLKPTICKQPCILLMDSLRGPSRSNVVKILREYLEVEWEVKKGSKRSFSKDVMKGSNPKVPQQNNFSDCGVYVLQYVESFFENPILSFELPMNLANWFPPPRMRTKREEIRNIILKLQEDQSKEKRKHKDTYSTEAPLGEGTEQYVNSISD
The assay is classed as functional.

For the next assay, the system named is H4. The experiment in a line: Luminescence Cell-Based Dose Response HTS to Identify Activators of 5'UTR Stem-Loop Driven Prion Protein mRNA Translation in H4 Neuroglioblastoma Cells. [Related pubchem assays: 1829 (Project Summary), 1814 (Primary HTS)]. The assay is classed as functional. The settings on record: Homo sapiens.
A short description of assay [6]: Luminescence Cell-Based Dose Response HTS to Identify Activators of Luciferase Translation or Activity in H4 […] Cells. [Related pubchem assays: 1829 (Project Summary), 1814 (Primary HTS)]. The assay is classed as functional.
Assay [7] is described as follows: Counterscreen for inhibitors of Trypanosoma brucei methionyl tRNA synthetase (MetRS): Luminescence-based cell-based high throughput dose response assay to identify compounds that are cytotoxic to Jurkat human T lymphocyte cells. The assay is classed as functional.
For assay [8], the target named is T7, Methionyl-tRNA synthetase, putative (Trypanosoma brucei brucei, UniProt Q38C91).
T7 sequence (Q38C91 whole entry): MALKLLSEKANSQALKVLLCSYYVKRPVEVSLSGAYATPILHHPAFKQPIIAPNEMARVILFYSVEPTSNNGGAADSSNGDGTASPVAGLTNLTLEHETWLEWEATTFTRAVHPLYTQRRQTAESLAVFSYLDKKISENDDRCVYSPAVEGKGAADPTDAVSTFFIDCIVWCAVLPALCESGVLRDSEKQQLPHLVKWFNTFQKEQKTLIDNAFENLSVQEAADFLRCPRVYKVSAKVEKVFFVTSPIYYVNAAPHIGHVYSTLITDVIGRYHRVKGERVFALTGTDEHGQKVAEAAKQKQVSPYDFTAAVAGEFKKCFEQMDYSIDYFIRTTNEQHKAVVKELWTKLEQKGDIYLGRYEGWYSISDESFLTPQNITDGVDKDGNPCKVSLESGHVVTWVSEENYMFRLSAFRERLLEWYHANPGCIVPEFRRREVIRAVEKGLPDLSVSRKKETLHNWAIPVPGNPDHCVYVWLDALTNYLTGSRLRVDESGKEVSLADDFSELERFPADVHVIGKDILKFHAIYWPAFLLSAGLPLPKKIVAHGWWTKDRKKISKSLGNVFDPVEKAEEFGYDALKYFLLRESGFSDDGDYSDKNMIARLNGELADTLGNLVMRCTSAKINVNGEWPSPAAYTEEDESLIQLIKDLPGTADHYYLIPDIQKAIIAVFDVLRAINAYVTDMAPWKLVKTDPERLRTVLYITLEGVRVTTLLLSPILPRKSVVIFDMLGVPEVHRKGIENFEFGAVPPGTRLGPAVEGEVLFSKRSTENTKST
The assay is classed as functional, Trypanosoma brucei brucei strain 927/4 GUTat10.1.

Assay [9] concerns the target T7, Methionyl-tRNA synthetase, putative. The assay is classed as functional, Trypanosoma brucei brucei strain 927/4 GUTat10.1. The source holds these as a separate data set.
The target of a further assay is Paired box protein Pax-8 (Homo sapiens, UniProt Q06710). In words: inhibitors of PAX8-driven TPO luciferase reporter, dose response, RMG-I cells, cherry-pick (AID 687027).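 Note: luciferase reporter driven by Pax8 target thyroperoxidase promoter measured by SteadyGlo luminescence.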 It counts as functional, cell-based.
Sequence of Paired box protein Pax-8 (Q06710 whole entry): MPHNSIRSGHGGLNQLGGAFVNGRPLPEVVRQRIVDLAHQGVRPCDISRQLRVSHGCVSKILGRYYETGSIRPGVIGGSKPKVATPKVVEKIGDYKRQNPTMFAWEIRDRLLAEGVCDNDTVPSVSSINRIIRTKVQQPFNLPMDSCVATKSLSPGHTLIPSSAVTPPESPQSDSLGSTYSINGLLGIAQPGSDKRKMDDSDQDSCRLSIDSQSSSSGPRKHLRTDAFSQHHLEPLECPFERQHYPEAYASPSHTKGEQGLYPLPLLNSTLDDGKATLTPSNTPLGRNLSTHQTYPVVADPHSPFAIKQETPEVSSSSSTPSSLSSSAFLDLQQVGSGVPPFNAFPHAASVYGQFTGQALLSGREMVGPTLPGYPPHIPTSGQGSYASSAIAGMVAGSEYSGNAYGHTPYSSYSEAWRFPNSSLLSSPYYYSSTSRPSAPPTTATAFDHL
The nature of assay [10]: cytotoxicity in OVCAR8 ovarian cancer cells, dose response, PAX8 project, cell-based, plate reader, dry powder samples (AID 743197). It counts as functional. The following applies: OVCAR-8.
Assay [11] addresses FAD-linked sulfhydryl oxidase ALR (Homo sapiens, UniProt P55789). In words: inhibitors of human ALR sulfhydryl oxidase, dose response, biochemical, H2O2 detection, luminescence, cherry-pick (AID 493248).
Assay [12] in a line: Luminescence Cell-Based Dose Confirmation HTS to Identify Inhibitors of Platelet Dense Granule Release. [Related pubchem assays: 1663 (Primary HTS), 1678 (Summary of Project)]. It counts as functional.
Assay [13] addresses Luciferin 4-monooxygenase (Photinus pyralis, UniProt P08659). In words: firefly luciferase enzyme inhibitors, dose response, biochemical, luminescence (AID 1891).

Sequence of FAD-linked sulfhydryl oxidase ALR (P55789 whole entry): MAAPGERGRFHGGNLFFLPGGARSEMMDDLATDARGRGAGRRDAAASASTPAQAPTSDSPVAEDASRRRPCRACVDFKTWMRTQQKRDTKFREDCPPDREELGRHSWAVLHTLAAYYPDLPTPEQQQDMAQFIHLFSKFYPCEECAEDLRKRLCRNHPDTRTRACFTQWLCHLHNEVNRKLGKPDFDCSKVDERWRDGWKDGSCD
Sequence of Luciferin 4-monooxygenase (P08659 whole entry): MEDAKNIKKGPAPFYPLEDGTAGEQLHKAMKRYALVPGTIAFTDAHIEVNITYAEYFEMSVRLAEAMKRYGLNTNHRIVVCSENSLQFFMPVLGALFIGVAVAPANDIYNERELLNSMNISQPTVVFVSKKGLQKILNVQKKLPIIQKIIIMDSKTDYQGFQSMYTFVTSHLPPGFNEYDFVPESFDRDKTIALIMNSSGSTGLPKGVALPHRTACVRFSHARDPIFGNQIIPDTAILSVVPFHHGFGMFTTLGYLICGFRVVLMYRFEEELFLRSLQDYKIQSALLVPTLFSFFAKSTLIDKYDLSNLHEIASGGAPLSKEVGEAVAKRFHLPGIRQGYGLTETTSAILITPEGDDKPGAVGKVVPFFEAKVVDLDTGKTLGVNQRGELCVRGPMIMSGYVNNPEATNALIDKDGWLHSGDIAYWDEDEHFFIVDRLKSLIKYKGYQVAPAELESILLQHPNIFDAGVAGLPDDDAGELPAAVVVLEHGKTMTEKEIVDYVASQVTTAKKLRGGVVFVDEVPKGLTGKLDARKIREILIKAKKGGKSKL

As to `OCCN1CCN(CC/C=C2/c3ccccc3Sc3ccc(C(F)(F)F)cc32)CC1`, the AC50 in assay [1] is 21.2 µM (active). In addition, the IC50 in assay [2] is > 20 µM (inactive).
Take `CCOC(=O)c1sc(Nc2ccccc2Cl)nc1C`: the IC50 in assay [3] was 8.78 µM (active); in [4], 20.3 µM (active); at Caspase-3, 26.6 µM (active); in [5], 19.8 µM (active). Besides, the figures for the EC50 (in the assay with H4; in assay [6]) were 43.9 µM (active) and 1.18 µM (active), respectively.
Take `CC(C)C[C@@H]1CN=C(N)N1C[C@@H]1CCCN1C[C@@H](C(C)C)N1C[C@@H](Cc2ccccc2)N(CCc2ccc(Cl)c(Cl)c2)C1=N`: the concentration at half-maximal activity (AC50) in [1] was 16.7 µM (active).
Take `O=C(NCc1cc(Cl)cc(Cl)c1)c1ccc2[nH]c([C@H]3C[C@H](O)[C@@H](CO)O3)nc2c1`: the IC50 was 83.3 µM (inactive) in [7], 23.8 µM (inactive) in assay [8] and 13.5 µM (inactive) in assay [9].
For the compound `Cc1ccc(NC(=O)c2ccc3c(c2)OCO3)cc1Cl`, the IC50 in [3] is 4.44 µM (active); in [4] it was > 100 µM (inactive); on Caspase-3 it was 14 µM (active); in assay [5], 5.35 µM (active).
As for `COc1ccc(NC(=O)Nc2ccc3c(c2)C(=O)N([C@@H](C)CO)C[C@@H](C)[C@@H](CN(C)Cc2ccc(Cl)c(Cl)c2)OCCCC[C@@H](C)O3)cc1`, the concentration at half-maximal activity (AC50) at Paired box protein Pax-8 is 14.1 µM (active); in assay [10] it was 65.4 µM (active).
For the compound `CC(C)(Oc1ccc(Cl)cc1)C(=O)OCc1nc2ccsc2c(=O)[nH]1`, the IC50 in [8] was 21.6 µM (inactive); in [9] it was 9.89 µM (active).
On to `C/C(=C1/SC(=S)N(CCC(=O)O)C1=O)c1ccc(O)cc1`, for which the figures for the IC50 in assay [7], in assay [8] and in [9] were 83.3 µM (inactive), 16.6 µM (inactive) and 9.47 µM (active), respectively. The AC50 in assay [11] is 4.14 µM (active). Further, the concentration for a half-maximal effect (EC50) in assay [12] and in assay [13] was > 112 µM (not active) in each case.
Take `Cc1ccccc1C(=O)Oc1ccc2ccc(O)cc2c1`: the concentration for half-maximal inhibition (IC50) in [3] was 4.59 µM (active); in [4], 12.1 µM (active); on Caspase-3, 35.4 µM (active); in assay [5], 10.4 µM (active).
On to `CC(C)(Oc1ccc(Cl)cc1)C(=O)OCc1nc(O)c2sccc2n1`, for which the IC50 in [7] was 83.3 µM (inactive).
In the case of `Oc1ccccc1-c1csc(-c2ccccc2)n1`, the half-inhibitory concentration (IC50) is 3.44 µM (active) in assay [3], 10.7 µM (active) in [4], 16.2 µM (active) on Caspase-3 and 7.62 µM (active) in assay [5].
